The source of these data is patent publication EP0314239A2, “Tripeptide renin inhibitors with N-terminal ureido or sulfamido groups” (Merck & Co., Inc., priority 1987, dated 1989).

The assay addresses T1, renin (Homo sapiens, UniProt P00797).
T1 sequence (P00797 67-406): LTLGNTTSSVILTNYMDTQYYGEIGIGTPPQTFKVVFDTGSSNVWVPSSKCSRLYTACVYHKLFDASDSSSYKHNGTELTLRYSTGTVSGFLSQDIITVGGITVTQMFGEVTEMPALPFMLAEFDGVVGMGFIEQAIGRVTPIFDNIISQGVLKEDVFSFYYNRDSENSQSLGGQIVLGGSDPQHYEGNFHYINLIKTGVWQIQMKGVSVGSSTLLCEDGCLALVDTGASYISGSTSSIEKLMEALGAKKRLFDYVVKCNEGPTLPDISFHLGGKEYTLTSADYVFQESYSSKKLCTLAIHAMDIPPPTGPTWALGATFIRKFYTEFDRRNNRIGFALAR
The experiment in a line: Renin inhibition IC50, by the methods of J. Med. Chem., 1985, 28, 1789-1790. It counts as biochemical. The source says:
The following examples are intended to be representative and not limiting. ICso results were obtained according to the methods described in J. Med. Chem., 1985, 28, 1789-1790.
Turning to `CC[C@H](C)CNC(=O)C[C@H](O)[C@H](CC1CCCCC1)NC(=O)[C@H](Cc1c[nH]cn1)NC(=O)[C@H](Cc1ccccc1)NC(=O)N1CCNCC1` [Example 6, N-(Piperazin-1-yl)carbonyl-Phenylalanyl-Histidyl-ACHPA-2(S)-Methylbutylamide], it took 43 nM to reach half-maximal inhibition (IC50).
Under `O=C(C[C@H](O)[C@H](CC1CCCCC1)NC(=O)[C@H](Cc1c[nH]cn1)NC(=O)[C@H](Cc1ccccc1)NC(=O)N1CCOCC1)NC1CN2CCC1CC2` (stereo partly drawn) [N-(morpholin-4-yl)carbonyl-L-Phenylalanyl-L-Histidyl-(3S,4S)-4-amino-5-cyclohexyl-3-hydroxy pentanoyl-3-quinuclidinyl amide] stands 30 nM; under `C[N+]12CCC(CC1)C(NC(=O)C[C@H](O)[C@H](CC1CCCCC1)NC(=O)[C@H](Cc1c[nH]cn1)NC(=O)[C@H](Cc1ccccc1)NC(=O)N1CCOCC1)C2` (stereo partly drawn) [Example 7, N-(morpholin-4-yl)carbonyl-L-Phenylalanyl-L-Histidyl(3S,4S)-4-Amino-5-Cyclohexyl-3-Hydroxypentanoyl-1-Methylquinuclidinium-3-yl-Amide Acetate], 29 nM.
As to `CC[C@H](C)CNC(=O)C[C@H](O)[C@H](CC1CCCCC1)NC(=O)[C@H](Cc1c[nH]cn1)NC(=O)[C@H](Cc1ccccc1)NC(=O)N1CCN(C(=O)OC(C)(C)C)CC1` [Example 5, N-(4-Boc-Piperizinyl)Carbonyl-Phenylalanyl-Histidyl-ACHPA-2(S)Methylbutylamide], the IC50 (usually the point on the concentration scale where inhibition reaches its midpoint) stood at 10 nM.
Compound `CC[C@H](C)CNC(=O)C[C@H](O)[C@H](CC1CCCCC1)NC(=O)[C@H](Cc1c[nH]cn1)NC(=O)[C@H](Cc1ccccc1)NC(=O)N1CCOCC1` [Example 4, N-(Morpholin-4-yl)carbonyl-Phenylalanyl-Histidyl-ACHPA-2(S)-Methylbutylamide] yielded an IC50 of 5 nM.
